{"source": "patent US20210000953A1", "about": "“USE OF IMMUNE CHECKPOINT INHIBITORS IN CENTRAL NERVOUS SYSTEMS NEOPLASMS” (Bristol-Myers Squibb Company, priority 2014, published 2021)", "origin": "cited, not measured here", "key": {"recurrent GBM": {"test_system": "recurrent GBM", "details": "single agent, relapsed setting; cited from earlier work"}, "[1]": {"details": "in vivo; cited from earlier work"}, "previously treated GBM": {"test_system": "previously treated GBM", "details": "AVF3708g, cited from earlier work"}, "[2]": {"test_system": "previously treated gliomas", "details": "NCI 06-C-0064E, cited from earlier work"}, "newly diagnosed GBM": {"test_system": "newly diagnosed GBM", "details": "cited from earlier work"}}}
{"compound": "CCc1c2c(nc3ccc(OC(=O)N4CCC(N5CCCCC5)CC4)cc13)-c1cc3c(c(=O)n1C2)COC(=O)[C@]3(O)CC", "note": "[irinotecan]", "values": [{"measurement": "Response rates", "setting": "recurrent GBM", "result": "≤ 15", "unit": "%"}]}
{"compound": "Cn1nnc2c(C(N)=O)ncn2c1=O", "note": "[temozolomide]", "values": [{"measurement": "Terminal half-life", "setting": "[1]", "result": 1.2, "unit": "h"}]}
{"compound": "bevacizumab", "values": [{"measurement": "Responses, % of patients", "setting": "previously treated GBM; WHO radiographic criteria, 95% CI:17.0%, 36.1%", "result": 25.9, "unit": "%"}, {"measurement": "Median duration of response", "setting": "previously treated GBM; 95% CI: 3.0, 5.7 months", "result": 4.2, "unit": "months"}, {"measurement": "Objective responses", "setting": "[2]; 56 patients with high-grade glioma, 95% CI, 10.9%, 31.3%", "result": 19.6, "unit": "%"}, {"measurement": "Median duration of response", "setting": "[2]; 95% CI: 2.4, 17.4", "result": 3.9, "unit": "months"}, {"measurement": "Cognitive function and quality of life", "setting": "newly diagnosed GBM; in vivo", "result": "reduced cognitive function and quality of life"}, {"measurement": "Overall survival", "setting": "newly diagnosed GBM; newly diagnosed GBM, above standard of care (radiotherapy plus temozolomide)", "result": "does not significantly increase overall survival"}, {"measurement": "Progression-free survival", "setting": "newly diagnosed GBM; newly diagnosed GBM, with radiotherapy plus temozolomide", "result": "increases progression-free survival"}]}
